Consider 16 molecules from PubChem BioAssay (NCI).

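1) Cells in 96-well plates. 2) Compound, 48 h, 5 concentrations. 3) Linear interpolation between surrounding doses. 4) Unreached endpoint = highest concentration. TGI is the concentration that stops growth completely.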 A value given as a limit tells only on which side of the number the result lay.

Test systems include EKVX NSCLC; HOP-92 NSCLC; HS 578T breast; M14 melanoma; MALME-3M melanoma; MCF7 breast; NCI/ADR-RES ovarian; RPMI-8226 leukemia; SW-620 colon.
Holding throughout (assay): DTP human tumour cell line panel, 48 h

As to `COc1ccccc1N1C(=O)/C(=C\c2ccccc2)SC1c1cc(OC)c(OC)c(OC)c1` (stereo not drawn), the TGI in the assay with EKVX NSCLC, in the assay on HOP-92 NSCLC, in the assay on HS 578T breast, in the assay on M14 melanoma, in the assay on MALME-3M melanoma and with MCF7 breast was over 100 µM in each case. This molecule showed a TGI with NCI/ADR-RES ovarian of over 100 µM.
For the molecule `O=C(O)Cc1ccc(-n2nnc3c(=O)[nH][nH]c(=O)c32)cc1`, the TGI in the assay with EKVX NSCLC, with HOP-92 NSCLC, with M14 melanoma, in the assay with MALME-3M melanoma, with MCF7 breast and in the assay with NCI/ADR-RES ovarian was over 100 µM throughout. Also, in the assay with RPMI-8226 leukemia, the TGI is over 100 µM.
Take `COC(=O)/C=C/[C@H]1[C@H](C)N1S(=O)(=O)c1ccc(C)cc1` (stereo partly drawn): the TGI in the assay with EKVX NSCLC, in the assay on HS 578T breast, in the assay on M14 melanoma, in the assay on MALME-3M melanoma, in the assay on MCF7 breast and in the assay with NCI/ADR-RES ovarian was over 100 µM in each case. Further, the TGI with RPMI-8226 leukemia and in the assay on SW-620 colon was over 100 µM in each case.
Turning to `COC1=C2C[C@](OC)(C#CC=CC#CC2O)CC1(C)C` (stereo partly drawn), the TGI in the assay with EKVX NSCLC, with HS 578T breast, with MALME-3M melanoma, in the assay with MCF7 breast, in the assay with NCI/ADR-RES ovarian and with RPMI-8226 leukemia was over 100 µM each time. The molecule also yielded a TGI in the assay on SW-620 colon of over 100 µM.
In the case of `COc1ccc(C(CC(=O)c2ccc(O)cc2)C(C(=O)c2ccc(O)cc2)C(c2ccc(OC)cc2)C2C(=O)NC(=S)NC2=O)cc1` (stereo not drawn), the TGI in the assay with HOP-92 NSCLC was over 100 µM; in the assay on HS 578T breast, 67.8 µM; in the assay on M14 melanoma it was 39.3 µM; in the assay with MCF7 breast it was 33.2 µM; in the assay on NCI/ADR-RES ovarian, over 100 µM; with RPMI-8226 leukemia it was 92.4 µM. For the same molecule, in the assay on SW-620 colon, the TGI is 55.7 µM.
As to `COc1cc2oc(=O)cc(C)c2c(OC)c1OC`, the TGI with EKVX NSCLC, in the assay with HS 578T breast, with M14 melanoma, in the assay with MALME-3M melanoma, with MCF7 breast and in the assay with NCI/ADR-RES ovarian was over 100 µM each time. The TGI in the assay with RPMI-8226 leukemia and in the assay with SW-620 colon was over 100 µM throughout.
`ClC1(Cl)C2CCOC21n1cnc2ccccc21` (stereo not drawn): the TGI with EKVX NSCLC, in the assay on HS 578T breast, in the assay with M14 melanoma, with MALME-3M melanoma, with MCF7 breast and with NCI/ADR-RES ovarian was over 100 µM each time. Moreover, the TGI in the assay with RPMI-8226 leukemia and with SW-620 colon was over 100 µM in each case.
As for `FC(F)(F)c1ccc(N=NN2CCCC2)cc1`, the TGI in the assay with EKVX NSCLC, in the assay with HOP-92 NSCLC, with HS 578T breast, in the assay with M14 melanoma, in the assay with MALME-3M melanoma and in the assay on MCF7 breast was over 100 µM in each case. Also, the TGI in the assay on RPMI-8226 leukemia and in the assay on SW-620 colon was over 100 µM throughout.
Turning to `CC1(C)CC(=O)C(/C=N/c2nc(-c3cccc([N+](=O)[O-])c3)cs2)=C(O)C1`, the TGI with EKVX NSCLC was found to be 46.6 µM; in the assay on HOP-92 NSCLC, 39.6 µM; in the assay with HS 578T breast, 62.4 µM; with M14 melanoma, 38.2 µM; in the assay with MCF7 breast it was 34 µM; in the assay with NCI/ADR-RES ovarian, 39.2 µM. The TGI amounted to 43.9 µM with RPMI-8226 leukemia and 25.6 µM in the assay with SW-620 colon.
As for `CCOC1=NC(C(F)(F)F)(C(F)(F)F)N=C(/N=C(/N)N(C)C(C(C)C)P(=O)(OC(C)C)OC(C)C)O1` (stereo not drawn), the TGI in the assay on EKVX NSCLC, in the assay on HS 578T breast, in the assay with M14 melanoma, with MALME-3M melanoma, in the assay on MCF7 breast and in the assay on NCI/ADR-RES ovarian was over 100 µM each time. Moreover, the TGI with RPMI-8226 leukemia and in the assay with SW-620 colon was over 100 µM in each case.
On to `C[C@H](N)C(=O)Nc1ccc(-c2nc3ccccc3s2)cc1Cl`, for which the concentration for total growth inhibition (TGI) is 26.7 µM with EKVX NSCLC; over 100 µM in the assay with HOP-92 NSCLC; 49.7 µM in the assay on HS 578T breast; 19 µM in the assay on M14 melanoma; 41.4 µM in the assay with MALME-3M melanoma; over 100 µM with NCI/ADR-RES ovarian. This molecule also had a concentration for total growth inhibition (TGI) in the assay with SW-620 colon of 29.4 µM.
Turning to `CC(C)N=C(NC#N)NS(=O)(=O)c1cnccc1NC1CCCCCCC1`, the TGI in the assay on EKVX NSCLC, in the assay on HS 578T breast, in the assay with M14 melanoma, with MALME-3M melanoma, in the assay on MCF7 breast and with NCI/ADR-RES ovarian was over 100 µM each time. Besides, the TGI in the assay on RPMI-8226 leukemia and in the assay with SW-620 colon was over 100 µM throughout.
As to `NC(=O)NC(=O)c1cccc(C(=O)NC(N)=O)n1`, the TGI in the assay on EKVX NSCLC, with HOP-92 NSCLC, in the assay on M14 melanoma, in the assay with MALME-3M melanoma, with MCF7 breast and with NCI/ADR-RES ovarian was over 100 µM in each case. The TGI in the assay with RPMI-8226 leukemia and in the assay with SW-620 colon was over 100 µM throughout.
Turning to `Cc1cn(C2CC(/[N+]([O-])=N\Nc3ccc([N+](=O)[O-])cc3)C(CO)O2)c(=O)[nH]c1=O` (stereo not drawn), the TGI with EKVX NSCLC, in the assay on HOP-92 NSCLC, in the assay with HS 578T breast, in the assay with M14 melanoma, in the assay on MALME-3M melanoma and with NCI/ADR-RES ovarian was over 100 µM throughout. Also, the total growth inhibition concentration (TGI) in the assay on RPMI-8226 leukemia and with SW-620 colon was over 100 µM in each case.
For the molecule `COc1ccc(-c2nc3ccccc3c(=O)[nH]2)cc1OC`, the concentration for total growth inhibition (TGI) with EKVX NSCLC is 53.2 µM; in the assay on HS 578T breast it was 83.1 µM; with M14 melanoma, over 100 µM; with MALME-3M melanoma it was over 100 µM; in the assay on MCF7 breast, over 100 µM; in the assay with NCI/ADR-RES ovarian it was over 100 µM. The TGI in the assay on RPMI-8226 leukemia and with SW-620 colon was over 100 µM throughout.
For `C/C(=N\Nc1nc2ccccc2[nH]1)c1ccc2ccccc2n1`, the TGI with EKVX NSCLC worked out at 5.97 µM; in the assay with HS 578T breast it was 35 µM; with M14 melanoma, 6.47 µM; in the assay with MALME-3M melanoma, 7.85 µM; in the assay on MCF7 breast, 13.8 µM; in the assay on NCI/ADR-RES ovarian it was 7.63 µM. Moreover, the TGI in the assay with RPMI-8226 leukemia came to 3.15 µM; in the assay on SW-620 colon, 14.6 µM.
